Test results published in PubChem BioAssay (NCI).
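Growth conditions: 96-well plates. Treatment: test compound, 48 hours, 5 concentrations. Analysis: linear interpolation between bracketing concentrations; unreached endpoints set to highest concentration. Here, GI50 denotes the concentration required for 50% inhibition of growth. TGI: total growth inhibition.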

Assays:
Assay in all cases: growth of human tumour cells (NCI), 48 h
786-0 renal = system: 786-0 renal
COLO 205 colon = system: COLO 205 colon
EKVX NSCLC = system: EKVX NSCLC
OVCAR-3 ovarian = system: OVCAR-3 ovarian
SF-295 CNS = system: SF-295 CNS
SR leukemia = system: SR leukemia
A498 renal = system: A498 renal
LOX IMVI melanoma = system: LOX IMVI melanoma
M14 melanoma = system: M14 melanoma
DU-145 prostate = system: DU-145 prostate

| Structure (SMILES) | TGI (786-0 renal) [µM] | TGI (COLO 205 colon) [µM] | TGI (EKVX NSCLC) [µM] | TGI (OVCAR-3 ovarian) [µM] | TGI (SF-295 CNS) [µM] | TGI (SR leukemia) [µM] | GI50 (786-0 renal) [µM] | GI50 (A498 renal) [µM] | TGI (A498 renal) [µM] | GI50 (COLO 205 colon) [µM] | GI50 (EKVX NSCLC) [µM] | GI50 (LOX IMVI melanoma) [µM] | TGI (LOX IMVI melanoma) [µM] | GI50 (M14 melanoma) [µM] | TGI (M14 melanoma) [µM] | GI50 (OVCAR-3 ovarian) [µM] | GI50 (SF-295 CNS) [µM] | GI50 (SR leukemia) [µM] | TGI (DU-145 prostate) [µM] | GI50 (DU-145 prostate) [µM] |
| --- | --- | --- | --- | --- | --- | --- | --- | --- | --- | --- | --- | --- | --- | --- | --- | --- | --- | --- | --- | --- |
| COC(=O)c1ccc(Cl)cc1NC(=O)C1CCCCC1 | > 100 | > 100 | > 100 | > 100 | > 100 | > 100 |  |  |  |  |  |  |  |  |  |  |  |  |  |  |
| C[n+]1ccc(-c2c3nc(c(-c4cc[n+](C)cc4)c4ccc([n-]4)c(-c4cc[n+](C)cc4)c4nc(c(-c5cc[n+](C)cc5)c5ccc2[n-]5)C=C4)C=C3)cc1.[I-].[Zn+2] | 28 | 35.8 | 47.6 | 28.1 | > 100 | 94.7 | 8.39 | 8.34 | 31.3 | 18.3 | 11.1 | 82.9 | > 100 | 14 | 35.5 | 7.02 | 38 | 32.2 |  |  |
| Fc1cccc2c1cc1ccc3cccc4ccc2c1c34 | > 100 | > 100 | > 100 | > 100 | > 100 | > 100 |  |  | > 100 |  |  |  | > 100 |  | > 100 |  |  |  |  |  |
| N#C/C(=C/Sc1ccccc1)C(=O)O | 77.9 | 47.5 | > 100 | 78.5 | > 100 | > 100 |  |  |  |  |  |  | 24.5 |  | 57.2 |  |  |  |  |  |
| COc1ccc2c(c1OC)OCC(CN(C)C)C2=O (configuration not stated) | 25.9 | 21.6 | 49.9 | 48.5 | > 100 | 10.5 |  |  |  |  |  |  | 31.2 |  | 31.5 |  |  |  | 34.5 |  |
| Cc1cn2c(/C=N/N=C(N)N)c(-c3cccnc3)nc2s1 | 26.8 | 27.5 | 36.3 | 22.9 | 26.5 |  | 12.9 |  |  | 11.6 | 16.7 | 12.9 | 28.7 | 10 | 23.5 | 10.3 | 11.9 |  |  |  |
| COc1cc2c(cc1OC)C(=O)Cc1ccc(OC)c(OC)c1CN(C)CC2 | > 100 | > 100 | > 100 | > 100 |  |  |  |  | 48.4 |  |  |  | > 100 |  | > 100 |  |  |  |  |  |
| O=C1c2ccccc2-c2c1c1c(O)cccc1n2-c1ccccc1 | > 100 | > 100 | > 100 | > 100 | > 100 | > 100 | 62.2 |  |  | > 100 | > 100 | > 100 | > 100 | 29.3 | > 100 | > 100 | > 100 | > 100 | > 100 | > 100 |
| O=C(NC1C2CC3CC(C2)CC1C3)c1cc(/C=C/c2ccccc2)[nH]c(=S)n1 (configuration not stated) | > 100 | > 100 | > 100 | > 100 | > 100 | > 100 |  |  | > 100 |  |  |  | > 100 |  | > 100 |  |  |  |  |  |
| COc1ccc(OC(C(=O)O)c2ccccc2)c2c1CCCC2=O (configuration not stated) | > 100 | > 100 | > 100 | > 100 | > 100 |  |  |  | > 100 |  |  |  | > 100 |  | > 100 |  |  |  |  |  |
| OC1C2CCC1C1C3C=CC(C3)C21 (configuration not stated) | > 100 | > 100 | > 100 | > 100 | > 100 | > 100 |  |  |  |  |  |  | > 100 |  | > 100 |  |  |  |  |  |
| CCCCN(CCCC)CCCn1c(=O)c2c3ccccc3n(C)c2n2nnc(-c3ccccc3)c12 | > 100 | 62.9 | > 100 | > 100 | > 100 |  | 39 | 42.7 | > 100 | 5.01 | 56.3 | 28.4 | > 100 | 21.6 | > 100 | 48.6 | 31.9 |  | > 100 | 47.6 |
| c1ccc2c(c1)[nH]c1c2nc2ncccn21 | > 100 |  | > 100 |  | > 100 | > 100 |  |  | > 100 |  |  |  |  |  | > 100 |  |  |  |  |  |
| O=C1c2ccccc2C(=O)N1C/C=C/CO | > 100 | > 100 |  | > 100 |  | > 100 |  |  | > 100 |  |  |  |  |  | > 100 |  |  |  |  |  |
| CC(=O)C1(N=Nc2ccc(S(N)(=O)=O)cc2)CCOC1=O (configuration not stated) | > 100 | > 100 | > 100 | > 100 | > 100 |  |  |  | > 100 |  |  |  | > 100 |  | > 100 |  |  |  | > 100 |  |
| O=c1oc(=O)c2oc3ccccc3oc1=2 | > 100 | > 100 | > 100 | > 100 | > 100 | > 100 |  |  | > 100 |  |  |  | > 100 |  | > 100 |  |  |  |  |  |
| O=S(O)CCCSSc1ccccc1 | > 100 | > 100 | 88.1 | > 100 | > 100 |  |  |  | > 100 |  |  |  | > 100 |  | > 100 |  |  |  |  |  |
| S=c1nc(Cl)cc2[nH]c(Cl)cn12 | > 100 | 8.08 | 7.41 | 6.49 | 14.4 |  |  |  | 56.9 |  |  |  | > 100 |  | > 100 |  |  |  | > 100 |  |
| CN(C)CCCNC(=O)c1cncnc1Nc1ccc(OCc2cccc(F)c2)c(Cl)c1 | 3.1 | 3.57 | 3.15 | 2.88 | 3.1 |  | 1.66 | 1.56 | 2.93 | 1.79 | 1.58 | 1.44 | 2.81 | 1.71 | 3.38 | 1.49 | 1.7 |  | 3.2 | 1.76 |
| CCOC(=O)/C(C#N)=C1/C(O)=C(C(=O)OC)C(C(=O)OC)=C1C(=O)OC | > 100 | > 100 | > 100 | > 100 | > 100 |  |  |  |  |  |  |  | > 100 |  | > 100 |  |  |  |  |  |
| O=c1oc2ccc(-n3c(=O)c4ccccc4c4ccccc4c3=O)cc2c2ccccc12 | > 100 | > 100 | > 100 | > 100 | > 100 |  |  |  | > 100 |  |  |  | > 100 |  | > 100 |  |  |  |  |  |
